“Also recorded” adds a separate entry of the source.
How the values were obtained:
[1] = tested on: panel of 468 human kinases; assay: KinomeScan kinome profiling; assay type: binding
Method: Kinome Profiling. Kinome profiling was performed using KinomeScan ScanMAX at compound concentration of 1 μM. Protocols are available from DiscoverX®.
(§1) Since there are limitations to topical delivery of drugs into human skin epidermis, novel SIK inhibitors designed to enhance epidermal permeation by reducing the size and increasing the lipophilicity (c Log P) to develop second generation SIK inhibitors YKL 06-061 and YKL 06-062 were derived (FIG. 6) (Bos and Meinardi 2000; Hadgraft and Pugh 1998). […] To assess the kinome selectivity information of new analogs, YKL-06-061 was screened across a panel of 468 human kinases at a concentration of […] using the KinomeScan methodology (DiscoverX). […] As the KinomeScan assays measure binding, enzymatic assays for these targets were also performed either in-house or using the SelectScreen Kinase Profiling Service at Thermo Fisher Scientific (Madison, Wis.).

[2] = tested on: normal human melanocytes, UACC62 melanoma cells, and UACC257 melanoma cells; assay: MITF and TRPM1 mRNA expression by qPCR; assay type: cell-based; conditions: for Mitf expression: UACC62 and UACC257 melanoma cells (FIG. 7); for TRPM1 mRNA levels (MITF gene target): delayed relative to MITF induction, 4 uM, over 24 hours; for MITF mRNA expression: UACC62 and UACC257 cells, 3 hours of treatment, relative to RPL11
Method: Cell Culture. UACC257 and UACC62 cells were grown in RPM1+1% penicillin and streptomycin+5% fetal bovine serum. Normal human melanocytes were grown in TIVA, and starved 24 hours in HAM's F-12+1% penicillin and streptomycin before all molecular experiments.
qPCR. mRNA was extracted from cells using the RNeasy Mini Kit (Qiagen®). KAPA SYBR® FAST Universal One-Step qRT-PCR Kit (KAPA BIOSYSTEMS®) was used to prepare mRNA samples for qPCR and samples were analyzed using the 7500 Fast Real Time PCR System (Applied Biosystems®). The relative expression of each gene was calculated by 7500 Fast System Software program, which utilizes Ct normalized to mRNA levels of RPL11 to calculate relative expression. Results are reported relative to control cells.

[3] = biological target: SIKs; assay: Kinase activity in vitro assay (biochemical IC50 against SIKs); parameters: species or system human; conditions: compared with HG 9-91-01 (FIG. 6)
Method: Kinase activity in vitro assay. The biochemical activities against SIK2 were measured by Caliper-based mobility shift assay (PerkinElmer®). […] Reactions were quenched by adding 20 mM EDTA (pH 8) after 1 hour, and percentage of substrate conversion was measured by LabChip EZ Reader II (PerkinElmer®). IC50's for SIK2 inhibition were calculated using SmartFit nonlinear regression in Genedata® Screener software suite (Genedata®).
(§2) All other in vitro kinase assay were conducted using the SelectScreen Kinase Profiling Service at Thermo Fisher Scientific® (Madison, Wis.). The protocols are available from Thermo Fisher Scientific® website.

[4] = tested on: human breast skin explants; assay: Human skin explants: darkening/pigmentation after topical SIK inhibitor; assay type: cell-based; conditions: for Results (skin darkening): Human Skin Explants
Method: Image and Colorimeter analysis were conducted 24 hours after the last treatment.
Human pigmentation experiments. Full thickness human breast skin explants were cultured in petri dishes with a solid phase and liquid phase phenol red free DMEM medium with […], 5% fungizone (Gibco®), and 10% FBS. Passive application refers to simply applying the treatment to skin without further rubbing or manipulation. Mechanical application refers to application of agents to skin with further rubbing of treatment with 10 clockwise turns of a gloved cotton swab applicator. Skin was harvested, fixed, and processed for paraffin embedding. Sections were cut from paraffin blocks, and sections were stained utilizing hematoxylin and eosin (morphology) and Fontana-Masson (melanin).

[5] = tested on: FRK and SIKs; assay: Enzymatic assays of KinomeScan top hits (in-house or SelectScreen); assay type: biochemical, human
Method: as §2, §1

[6] = tested on: Mc1r^e/e;K14—Scf mice; assay: Mouse pigmentation experiment, redhair model; assay type: in vivo
Method: (§3) Mice. C57BL/6J Mc1r^e/e mice were crossed with K14—Scf transgenic mice. C57BL/6J Tyr^c2j/c2j were crossed with K14—Scf transgenic mice. (Kunisada et al. 1998; D'Orazio et al. 2006).
(§4) Mouse pigmentation experiments. Animals were treated with vehicle control or 37.5 mM HG 9-9-01 until uniform gross darkening was visible as stated in figure legends. Daily differences in darkening of the skin were measured by reflective colorimetry. Skin was harvested, fixed, and processed for paraffin embedding. Sections were cut from paraffin blocks, and sections were stained utilizing hematoxylin and eosin (morphology) and Fontana-Masson (melanin). Melanin dissolution was conducted utilizing NaOH lysis method (Wakamatsu and Ito 2002).
(§5) Colorimeter Measurements: Differences in darkening of the skin were measured by reflective colorimetry (CIE L* white-black color axis) utilizing a CR-400 Colorimeter (Minolta®) calibrated by a calibration plate (C: Y 93.1, x 0.3133, y 0.3194) before each set of measurements.
(§6) To test this, a previously described mouse “redhair” model was utilized which carries the inactivating Mc1r^e/e mutant allele and a transgene, K14—SCF, in which Stem Cell Factor expression is driven by the Keratin-14 promoter allowing for epidermal homing of melanocytes (Kunisada et al. 1998; D'Orazio et al. 2006). Albino mice harboring a mutation in the tyrosinase gene were combined with the K14—Scf transgene (tyr^c/c;K14—Scf mice) and served as controls to evaluate whether the pigmentation afforded by topical SIK inhibitor was dependent upon the canonical tyrosinase-melanin pathway. […] Skin pigmentation remained in its pretreatment state over the next 30 days (FIG. 3A; 3B). […] These findings combined with the small molecule and lipophilic nature of the SIK inhibitors led us to investigate the use of SIK inhibitors for topical eumelanization of human skin.

[7] = tested on: Tyr^c/c;K14—Scf mice; assay: Mouse pigmentation experiment, albino control mice; assay type: in vivo
Method: as §3, §4, §5, §6

[8] = tested on: UACC257 melanoma cells; assay: Cell pelleting experiment (gross pigmentation of cell pellets); assay type: cell-based, human; conditions: 4 uM, 3 days of treatment
Method: Cell pelleting experiments. 1×10^5 UACC257 cells were plated per well in a 6-well plate. […] After 3 days, cells were trypsinized with 0.25% trypsin, resuspended in RPMI media, and pelleted. Pellets were washed 1× with PBS and allowed to dry before imaging.

Compound: COc1cc(N2CCN(C)CC2)ccc1Nc1ncc2c(n1)N(C1CCC1)C(=O)N(c1c(C)cccc1C)C2 [YKL-06-061, 1-cyclobutyl-3-(2,6-dimethylphenyl)-7-(2-methoxy-4-(4-methylpiperazin-1-yl)phenylamino)-3,4-dihydropyrimido[4,5-d]pyrimidin-2(1H)-one]
- S(1) score ([1]; concentration of 1 pM): 0.02
- Number of kinases displaying tight binding (Ambit scores of less than or equal to 1) ([1]; concentration of 1 µM): 16
- Mitf expression [2]: induces Mitf expression
- TRPM1 mRNA levels (MITF gene target) [2]: increased
- MITF mRNA expression ([2]; normal human melanocytes): dose dependent increase
- Induction of the pigmentation pathway compared with HG 9-91-01 ([2]; normal human melanocytes, Mitf and TRPM1 mRNA (FIG. 4)): as efficacious in inducing the pigmentation pathway as HG 9-91-01
- IC50 values for inhibition of SIKs [3]: comparable
- Results (skin darkening) ([4]; Table 2, passive topical application): Darkens
- Results (skin darkening) ([4]; Table 4): Darkens
- Gross pigmentation of human skin explants ([4]; passive topical application, 37.5 mM, 8 days (1×/day)): induced significant pigmentation
- Melanin content, Fontana Masson staining ([4]; passive topical application, 37.5 mM, 8 days, compared to control): increased melanin content
- Kinase selectivity in enzymatic assays [5]: only inhibited one kinase (FRK) stronger than SIKs

Compound: COc1ccc(N(C(=O)Nc2c(C)cccc2C)c2cc(Nc3ccc(N4CCN(C)CC4)cc3)ncn2)c(OC)c1 [HG 9-91-01]
- Mitf expression [2]: induces Mitf expression
- TRPM1 mRNA levels (MITF gene target) [2]: increased
- MITF mRNA expression ([2]; normal human melanocytes): Dose-dependent increases
- Fontana-Masson staining, difference between treatment groups ([6]; 40 days after treatment, Mc1r^e/e;K14—Scf and Tyr^c/c;K14—Scf mice): no differences
- Skin morphology, hematoxylin and eosin stain ([6]; 40 days after treatment, all mice): normal morphology
- Nuclear capping of melanosomes within epidermal keratinocytes ([6]; Fontana-Masson stained skin sections): Nuclear capping of melanin-laden melanosomes was observed
- Time to reversal of darkening after treatment was stopped ([6]; after 6 days of topical treatment): ≤ 10 days
- Skin morphology, hematoxylin and eosin staining ([6]; after treatment): normal morphology
- Extractable eumelanin, NaOH lysis of skin samples ([6]; compared to all other treatment groups): visible increase in extractable eumelanin
- Course of darkening ([6]; topical application, 6 days of treatment): progressive and reversible; also recorded: progressive over 6 days of treatment
- Reflective colorimetry (CIE L* white-black color axis) ([6]; topical, daily, 37.5 mM): significant darkening
- Gross skin darkening ([6]; topical, daily, 37.5 mM, 30 uL, 6 days / 7 days (FIG. 2)): robust darkening
- Melanin production, Fontana-Masson staining ([6]; treated skin areas): strong induction of melanin production
- Epidermis morphology, hematoxylin and eosin staining ([7]; after treatment): normal morphology
- Pigment induction, Fontana-Masson staining ([7]; albino mice): no pigment induction
- Visible change in skin pigmentation ([7]; albino mice, topical, daily, 37.5 mM): No visible change in skin pigmentation
- Change of skin colour during and after treatment ([7]; during treatment or 14 days after treatment was stopped): No change
- Gross pigmentation of cell pellets [8]: Gross pigmentation was observed
